Results from the supplement of paper PMC11061612.

Columns and labels:
[1] = compound: C=CCn1c(=O)c2cnc(Nc3ccc(N4CCN(C)CC4)cc3)nc2n1-c1cccc(C(C)(C)O)n1 [AZD1775]; details: max 3 µM
Method in brief: (§1)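 In 1536-well plates, cancer cell lines in 7.5 μl DMEM/F12 or RPMI with 10% FBS spent 24 hours at 37°C and 5% CO2 and were then dosed for 72 hours with final DMSO typically 0.2%. Viability was read by CellTiter-Glo 2.0 luminescence and scaled between blank-well and DMSO-well means. The single-agent IC50 was fitted from dose responses using a logistic curve in a non-linear mixed effects model, and that logistic curve had two parameters.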

[2] = compound: C[C@@H](Nc1cc(F)cc(F)c1)c1cc(C(=O)N(C)C)cc2c(=O)cc(N3CCOCC3)oc12 [AZD8186]; details: max 10 µM
Method in brief: as §1

[3] = compound: C[C@@H]1COCCN1C2=NC(=NC(=C2)C3(CC3)[S@](=N)(=O)C)C4=C5C=CNC5=NC=C4 [AZD6738]; details: max 10 µM
Method in brief: as §1

[4] = compound: Cn1cnc2c(F)c(Nc3ccc(Br)cc3Cl)c(C(=O)NOCCO)cc21 [Selumetinib]; details: max 10 µM
Method in brief: as §1

[5] = compound: CC(=O)O[C@H]1C(=O)[C@@]2(C)[C@H]([C@H](OC(=O)c3ccccc3)[C@]3(O)C[C@H](OC(=O)[C@H](O)[C@@H](NC(=O)c4ccccc4)c4ccccc4)C(C)=C1C3(C)C)[C@]1(OC(C)=O)CO[C@@H]1C[C@@H]2O [Paclitaxel]; details: max 3 µM
Method in brief: as §1

[6] = compound: C[C@@H](c1ccc2nccn2c1)n1nnc2ncc(-c3cnn(C)c3)nc21 [Savolitinib]; details: max 1 µM
Method in brief: as §1

[7] = compound: CN(C)CCCOc1ccc(-c2ccc3ncc4c(c3c2)n(C2CCOCC2)c(=O)n4C)cn1 [AZD0156]; details: max 3 µM
Method in brief: as §1

[8] = compound: CC1(C)CCC(CN2CCN(c3ccc(C(=O)NS(=O)(=O)c4ccc(NCC5CCOCC5)c([N+](=O)[O-])c4)c(Oc4cnc5[nH]ccc5c4)c3)CC2)=C(c2ccc(Cl)cc2)C1 [Venetoclax]; details: max 1 µM
Method in brief: as §1

[9] = compound: C1CC(C1)(C(=O)[O-])C(=O)[O-].N.N.[Pt+2] [Carboplatin]; details: max 10 µM
Method in brief: as §1

[10] = compound: Cc1cc2ncnn2cc1Nc1ncc2c(n1)n(C1CCOCC1)c(=O)n2C [AZD7648]; details: max 10 µM
Method in brief: as §1

[11] = compound: Cc1c2c(nn1C)CSCc1cc(n(C)n1)CSc1cc(c3ccccc3c1)OCCCc1c(C(=O)O)n(C)c3c-2c(Cl)ccc13 [AZD5991]; details: max 1 µM
Method in brief: as §1

[12] = compound: C[C@@H](Oc1cc(-c2cnn(C3CCNCC3)c2)cnc1N)c1c(Cl)ccc(F)c1Cl [Crizotinib]; details: max 10 µM
Method in brief: as §1

[13] = compound: CCc1c2c(nc3ccc(O)cc13)-c1cc3c(c(=O)n1C2)COC(=O)[C@]3(O)CC [SN-38]; details: max 0.3 µM
Method in brief: as §1

[14] = compound: CC(=O)c1c(C)c2cnc(Nc3ccc(N4CCNCC4)cn3)nc2n(C2CCCC2)c1=O [Palbociclib]; details: max 10 µM
Method in brief: as §1

[15] = compound: O=C(c1cc(Cc2n[nH]c(=O)c3ccccc23)ccc1F)N1CCN(C(=O)C2CC2)CC1 [Olaparib]; details: max 10 µM
Method in brief: as §1

[16] = compound: COc1cc(Nc2ncc3c(n2)-c2ccc(Cl)cc2C(c2c(F)cccc2OC)=NC3)ccc1C(=O)O [Alisertib]; details: max 10 µM
Method in brief: as §1

[17] = compound: CC1=C(C(=CC=C1)Cl)NC(=O)C2=CN=C(S2)NC3=CC(=NC(=N3)C)N4CCN(CC4)CCO [Dasatinib]; details: max 2 µM
Method in brief: as §1

[18] = compound: COc1cc2ncnc(Nc3ccc(F)c(Cl)c3)c2cc1OCCCN1CCOCC1 [Gefitinib]; details: max 10 µM
Method in brief: as §1

[19] = compound: Cc1nc(-c2cn3c(n2)-c2ccc(-c4cnn(C(C)(C)C(N)=O)c4)cc2OCC3)n(C(C)C)n1 [Taselisib]; details: max 10 µM
Method in brief: as §1

[20] = compound: COc1nnc2ccc(N3CCC(c4ccc(OCCN5CCN(C)C(=O)[C@H]5C)cc4)CC3)nn12 [AZD5153]; details: max 1 µM
Method in brief: as §1

[21] = compound: CCN(CCO)CCCOc1ccc2c(Nc3cc(CC(=O)Nc4cccc(F)c4)[nH]n3)ncnc2c1 [AZD2811]; details: max 1 µM
Method in brief: as §1

[22] = compound: CS(=O)(=O)CCNCc1ccc(-c2ccc3ncnc(Nc4ccc(OCc5cccc(F)c5)c(Cl)c4)c3c2)o1 [Lapatinib]; details: max 10 µM
Method in brief: as §1

[23] = compound: COc1cccc(OCCCN)c1-c1cc(Nc2cnc(C#N)cn2)n[nH]1 [Prexasertib]; details: max 1 µM
Method in brief: as §1

[24] = compound: COc1cccc2c1C(=O)c1c(O)c3c(c(O)c1C2=O)C[C@@](O)(C(=O)CO)C[C@@H]3O[C@H]1C[C@H](N)[C@H](O)[C@H](C)O1 [Doxorubicin]; details: max 1 µM
Method in brief: as §1

[25] = compound: CC(C)n1c(=O)n(C)c2cnc3cc(F)c(-c4ccc(OCCCN5CCCCC5)nc4)cc3c21 [AZD1390]; details: max 0.3 µM
Method in brief: as §1

[26] = compound: CC1=CN2[C@@H](C1)C=NC3=CC(=C(C=C3C2=O)OC)OCCCCCOC4=C(C=C5C(=C4)N=C[C@@H]6CC(=CN6C5=O)C)OC [SG3199]; details: max 0.001 µM
Method in brief: as §1

[27] = compound: N#Cc1cnc(Nc2cc(NC[C@H]3CNCCO3)c(C(F)(F)F)cn2)cn1 [SRA737]; details: max 10 µM
Method in brief: as §1

[28] = compound: C1CN(CCC1(C(=O)N[C@@H](CCO)C2=CC=C(C=C2)Cl)N)C3=NC=NC4=C3C=CN4 [AZD5363]; details: max 10 µM
Method in brief: as §1

[29] = compound: COc1cc([C@@H]2c3cc4c(cc3[C@@H](O[C@@H]3O[C@@H]5CO[C@@H](C)O[C@H]5[C@H](O)[C@H]3O)[C@H]3COC(=O)[C@H]23)OCO4)cc(OC)c1O [Etoposide]; details: max 10 µM
Method in brief: as §1

[30] = compound: Nc1ccn([C@@H]2O[C@H](CO)[C@@H](O)C2(F)F)c(=O)n1 [Gemcitabine]; details: max 0.3 µM
Method in brief: as §1

[31] = compound: O=C(Nc1ccc2[nH]nc(-c3ccncc3)c2c1)[C@@H]1CCN(CC(=O)N2CCN(c3ccc(-c4ncccn4)cc3)CC2)C1; details: max 5 µM
Method in brief: as §1

[32] = compound: CN(CC[C@H](CSC1=CC=CC=C1)NC2=C(C=C(C=C2)S(=O)(=O)NC(=O)C3=CC=C(C=C3)N4CCC(CC4)[C@H](C5=CC=CC=C5C6=CC=C(C=C6)Cl)O)S(=O)(=O)C(F)(F)F)CCO [AZD4320]; details: max 1 µM
Method in brief: as §1

[33] = compound: O=c1[nH]cc(F)c(=O)[nH]1 [5-Fluorouracil]; details: max 20 µM
Method in brief: as §1

[34] = compound: NC1(c2ccc(-c3nc4ccn5c(=O)[nH]nc5c4cc3-c3ccccc3)cc2)CCC1 [MK-2206]; details: max 10 µM
Method in brief: as §1

[35] = compound: CC(=O)Nc1cccc(-n2c(=O)n(C3CC3)c(=O)c3c(Nc4ccc(I)cc4F)n(C)c(=O)c(C)c32)c1 [Trametinib]; details: max 1 µM
Method in brief: as §1

Cell Line | IC50, cell viability 72 h [1] [µM] | IC50, cell viability 72 h [2] [µM] | IC50, cell viability 72 h [3] [µM] | IC50, cell viability 72 h [4] [µM] | IC50, cell viability 72 h [5] [µM] | IC50, cell viability 72 h [6] [µM] | IC50, cell viability 72 h [7] [µM] | IC50, cell viability 72 h [8] [µM] | IC50, cell viability 72 h [9] [µM] | IC50, cell viability 72 h [10] [µM] | IC50, cell viability 72 h [11] [µM] | IC50, cell viability 72 h [12] [µM] | IC50, cell viability 72 h [13] [µM] | IC50, cell viability 72 h [14] [µM] | IC50, cell viability 72 h [15] [µM] | IC50, cell viability 72 h [16] [µM] | IC50, cell viability 72 h [17] [µM] | IC50, cell viability 72 h [18] [µM] | IC50, cell viability 72 h [19] [µM] | IC50, cell viability 72 h [20] [µM] | IC50, cell viability 72 h [21] [µM] | IC50, cell viability 72 h [22] [µM] | IC50, cell viability 72 h [23] [µM] | IC50, cell viability 72 h [24] [µM] | IC50, cell viability 72 h [25] [µM] | IC50, cell viability 72 h [26] [µM] | IC50, cell viability 72 h [27] [µM] | IC50, cell viability 72 h [28] [µM] | IC50, cell viability 72 h [29] [µM] | IC50, cell viability 72 h [30] [µM] | IC50, cell viability 72 h [31] [µM] | IC50, cell viability 72 h [32] [µM] | IC50, cell viability 72 h [33] [µM] | IC50, cell viability 72 h [34] [µM] | IC50, cell viability 72 h [35] [µM]
CAL-148 (Breast Carcinoma) | 0.206 | > 10 | 3.82 | > 10 | 0.0452 | > 1 | > 3 | > 1 | > 10 | > 10 | > 1 | > 10 | 0.0025 | > 10 | > 10 | 1.33 | > 2 | > 10 | 0.241 | 0.803 | 0.0262 | > 10 | 0.234 | 0.0549 | > 0.3 | > 0.001 | > 10 | 0.274 | 0.59 | 0.0299 | > 5 | > 1 | > 20 | 1.38 | > 1
CCRF-CEM (T-Lymphoblastic Leukemia) | 0.134 | > 10 | 0.992 | > 10 | 0.00487 | > 1 | > 3 | > 1 | > 10 | > 10 | > 1 | 1.55 | 0.00191 | 1.95 | > 10 | 0.0737 | > 2 | > 10 | 7.25 | 0.523 | 0.00651 | > 10 | 0.00326 | 0.0626 | > 0.3 | > 0.001 | 0.77 | 7.97 | 0.202 | 0.0326 | > 5 | 0.0552 | > 20 | 3.98 | > 1
CaR-1 (Colorectal Carcinoma) | > 3 | > 10 | > 10 | > 10 | 0.171 | > 1 | > 3 | > 1 | > 10 | > 10 | > 1 | > 10 | 0.0282 | > 10 | > 10 | > 10 | > 2 | > 10 | 6.55 | > 1 | > 1 | > 10 | 0.279 | 0.957 | > 0.3 | > 0.001 | > 10 | > 10 | > 10 | 0.228 | > 5 | > 1 | > 20 | > 10 | > 1
Calu-3 (Lung Adenocarcinoma) | 2.89 | > 10 | > 10 | > 10 | > 3 | > 1 | > 3 | > 1 | > 10 | > 10 | > 1 | > 10 | > 0.3 | > 10 | > 10 | > 10 | > 2 | 3.73 | 2.79 | 0.337 | > 1 | 1.78 | > 1 | > 1 | > 0.3 | > 0.001 | > 10 | > 10 | 5.55 | > 0.3 | > 5 | > 1 | > 20 | > 10 | > 1
DoTc2-4510 (Cervical Carcinoma) | 2.9 | > 10 | > 10 | > 10 | 0.456 | > 1 | > 3 | > 1 | > 10 | > 10 | > 1 | > 10 | 0.00933 | > 10 | > 10 | > 10 | > 2 | > 10 | 4.86 | > 1 | > 1 | > 10 | 0.0595 | 0.518 | > 0.3 | > 0.001 | > 10 | > 10 | > 10 | > 0.3 | > 5 | > 1 | > 20 | > 10 | > 1
